Measured values from ChEMBL document CHEMBL6121062, “Discovery, Optimization, and Preclinical Pharmacology of EP652, a METTL3 Inhibitor with Efficacy in Liquid and Solid Tumor Models” (J Med Chem, 2025).

How the values were obtained:
[1] = Lipophilicity, logD of compound in 1-octanol/PBS at pH 7.4 incubated for 24 hrs by HPLC analysis; assay type: physicochemical
Kasumi 1 = test: Antiproliferative activity against human Kasumi 1 cells assessed as inhibition of cell viability incubated for 72 hrs by ATPlite assay; assay type: functional, cell-based; settings: Kasumi 1, 72 h
METTL3/METTL14 = METTL3/METTL14 (Homo sapiens, UniProt Q86U44); test: Displacement of [3H]-SAM from METTL3/METTL14 (unknown origin) using 5'biotinylated-UACACUCGAUCUGGACUAAAGGUGCUC-3' RNA as substrate preincubated for 10 mins followed by substrate/[3H]-SAM addition measured after 90 mins by SPA; assay type: protein-complex assay
METTL3/METTL14, sequence (Q86U44 whole entry): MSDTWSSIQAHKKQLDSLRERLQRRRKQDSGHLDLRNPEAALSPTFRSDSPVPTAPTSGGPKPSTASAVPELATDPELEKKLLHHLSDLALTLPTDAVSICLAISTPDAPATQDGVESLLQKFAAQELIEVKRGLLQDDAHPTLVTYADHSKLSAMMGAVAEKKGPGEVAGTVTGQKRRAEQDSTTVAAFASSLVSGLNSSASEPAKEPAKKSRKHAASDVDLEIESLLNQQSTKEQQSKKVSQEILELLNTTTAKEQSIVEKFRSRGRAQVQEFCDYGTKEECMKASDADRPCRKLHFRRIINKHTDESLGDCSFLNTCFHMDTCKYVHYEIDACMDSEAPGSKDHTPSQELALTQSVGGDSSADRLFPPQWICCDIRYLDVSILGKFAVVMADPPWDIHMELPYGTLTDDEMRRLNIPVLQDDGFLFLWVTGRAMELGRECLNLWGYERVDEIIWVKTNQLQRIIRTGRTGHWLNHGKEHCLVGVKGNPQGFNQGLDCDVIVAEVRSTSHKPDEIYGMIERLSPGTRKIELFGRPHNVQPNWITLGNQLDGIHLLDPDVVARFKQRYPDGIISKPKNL
METTL3/METTL14, sequence (Q9HCE5 whole entry, further chain): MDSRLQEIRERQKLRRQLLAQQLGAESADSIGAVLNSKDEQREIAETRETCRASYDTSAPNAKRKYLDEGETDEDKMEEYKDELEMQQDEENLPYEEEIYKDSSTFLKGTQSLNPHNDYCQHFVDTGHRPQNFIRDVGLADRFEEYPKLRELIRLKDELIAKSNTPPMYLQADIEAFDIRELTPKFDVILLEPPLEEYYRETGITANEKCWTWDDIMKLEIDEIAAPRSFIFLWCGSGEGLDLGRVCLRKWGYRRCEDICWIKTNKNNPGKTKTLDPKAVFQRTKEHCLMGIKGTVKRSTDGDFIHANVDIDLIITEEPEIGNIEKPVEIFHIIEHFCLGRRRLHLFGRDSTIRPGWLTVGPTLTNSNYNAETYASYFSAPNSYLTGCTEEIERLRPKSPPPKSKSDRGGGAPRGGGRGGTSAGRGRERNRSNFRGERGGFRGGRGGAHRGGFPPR

[2] = Unbound AUC in Sprague-Dawley rat at 1 mg/kg/day, iv measured for 24 hrs by LC-MS/MS analysis; assay type: ADME, organism-based; settings: in vivo
[3] = Unbound clearance in Sprague-Dawley rat at 1 mg/kg/day, iv measured for 24 hrs by LC-MS/MS analysis; assay type: ADME, organism-based; settings: in vivo

SMILES | logD at 24 h [1] | IC50 (Kasumi 1) [nM] | IC50 (METTL3/METTL14) [nM] | fAUC [2] [µM·min] | CL free [3] [mL/min/kg]
COc1cc(-c2cn(Cc3ccc(N4CCC[C@@H](N(C)CC5CCC5)C4)nn3)nn2)c2cn[nH]c2c1 | 2.59 | 3130 | – | – | –
COc1cc(-c2cn(Cc3ccc(N4CCC[C@@H](NC(=O)C5CCC5)C4)nn3)nn2)c2cn[nH]c2c1 | 2.61 | > 30000 | – | – | –
COc1cncc(-c2cn(Cn3ncc(N4CCC[C@@H](NCC5CCC5)C4)cc3=O)nn2)c1 | 1.06 | 11800 | 26 | – | –
COc1cc(-c2cn(Cc3ccc(N4CCC[C@@H](NC5CCC5)C4)nn3)nn2)c2cn[nH]c2c1 | 1.71 | 2740 | 5 | – | –
COc1cncc(-c2cn(C(c3ccc(N4CCC[C@@H](NCC5CCC5)C4)nn3)C(F)(F)F)nn2)c1 (some centres not stated) | 2.43 | 12200 | 12 | – | –
COc1cncc(-n2cc(C(C)n3ccc(N4CCC[C@@H](NCC5CCC5)C4)cc3=O)nn2)c1 (some centres not stated) | 1.12 | 1930 | 7 | – | –
COc1cncc(-c2cc(C(C)n3ccc(N4CCC[C@@H](NCC5CCC5)C4)cc3=O)on2)c1 (some centres not stated) | 1.63 | 1840 | 7 | – | –
CC(n1cc(-c2cccn3cncc23)nn1)n1ccc(N2CCC[C@@H](NCC3CCC3)C2)cc1=O (some centres not stated) | 1.53 | 5400 | 8 | – | –
CC(n1cc(-c2cncc(N(C)C)n2)nn1)n1ccc(N2CCC[C@@H](NCC3CCC3)C2)cc1=O (some centres not stated) | 1.69 | 35 | 1 | 4.7 | 449
COc1cncc(-n2cc(C(C)n3ccc(N4CCC[C@@H](NCC5CCC5)C4)cc3=O)cn2)c1 (some centres not stated) | 1.6 | 306 | 1 | – | 608
COc1cncc(-c2cn(Cc3ccc(N4CCCCC(NCC5CCC5)C4)nn3)nn2)c1 (configuration not stated) | 1.18 | > 30000 | 50 | – | –
COc1cccc(-c2cn(C(C)n3ccc(N4CCC[C@@H](NCC5CCC5)C4)cc3=O)nn2)c1 (some centres not stated) | 2.22 | > 30000 | – | – | –
CC(n1cc(-c2cncc(-n3cccn3)c2)nn1)n1ccc(N2CCC[C@@H](NCC3CCC3)C2)cc1=O (some centres not stated) | 1.8 | 301 | 2 | 3.3 | 529
COc1cncc(-c2nnn(C(C)n3ccc(N4CCC[C@@H](NCC5CCC5)C4)cc3=O)n2)c1 (some centres not stated) | 1.52 | 5500 | 13 | – | –
COc1cncc(-c2cn(Cc3ccc(N4CCC[C@@H](NCC5CCC5)C4)cc3)nn2)c1 | 2.04 | 875 | 6 | – | –
COc1ccc(-c2cn(C(C)n3ccc(N4CCC[C@@H](NCC5CCC5)C4)cc3=O)nn2)cn1 (some centres not stated) | 1.69 | > 30000 | > 30000 | – | –
COc1cncc(-n2cnc(C(C)n3ccc(N4CCC[C@@H](NCC5CCC5)C4)cc3=O)c2)c1 (some centres not stated) | 1.25 | > 30000 | > 30000 | – | –
COc1cncc(-c2cn(C3(c4ccc(N5CCC[C@@H](NCC6CCC6)C5)nn4)CC3)nn2)c1 | 1.7 | 9880 | 25 | – | –
COc1cncc(-c2cc(C(C)n3ccc(N4CCC[C@@H](NCC5CCC5)C4)cc3=O)sn2)c1 (some centres not stated) | 2.26 | 1720 | 11 | – | –
COc1cncc(-c2cn(Cc3ccc(N4CC5(CCCC5NCC5CCC5)C4)nn3)nn2)c1 (configuration not stated) | 1.85 | > 30000 | 205 | – | –
CC(n1cc(-c2cncc(C#N)c2)nn1)n1ccc(N2CCC[C@@H](NCC3CCC3)C2)cc1=O (some centres not stated) | 0.97 | > 30000 | – | – | –

SMILES | logD at 24 h [1] | IC50 (Kasumi 1) [nM] | IC50 (METTL3/METTL14) [nM] | fAUC [2] [µM·min] | CL free [3] [mL/min/kg]
COc1cc(-c2cn(Cc3ccc(N4CCC[C@@H](NC5CCCC5)C4)nn3)nn2)c2cn[nH]c2c1 | 1.88 | 3430 | – | – | –
COc1cc(-c2cn(Cc3ccc(N4CCC[C@H](NCC5CCC5)C4)nn3)nn2)c2cn[nH]c2c1 | 1.89 | 3400 | 24 | – | –
COc1cncc(-c2cn(Cc3ccc(N4CC5(CCC5NCC5CCC5)C4)nn3)nn2)c1 (configuration not stated) | 1.54 | > 30000 | 2300 | – | –
COc1cncc(-c2cn(Cc3ccc(N4CCC[C@@H](NCC5CCC5)C4)nc3)nn2)c1 | 1.46 | 1200 | 7 | – | –
CC(n1cc(-c2cccnc2)nn1)n1ccc(N2CCC[C@@H](NCC3CCC3)C2)cc1=O (some centres not stated) | 0.87 | 8120 | 39 | – | –
CC(n1cc(-c2cncc(N(C)C)c2)nn1)n1ccc(N2CCC[C@@H](NCC3CCC3)C2)cc1=O (some centres not stated) | 1.79 | 44 | – | 2.2 | 803
COc1cc(-c2cn(Cc3ccc(N4CCC[C@@H](NC5CC56CCC6)C4)nn3)nn2)c2cn[nH]c2c1 (some centres not stated) | 3.06 | 1100 | 4 | – | –
COc1cncc(-c2nnc(C(C)n3ccc(N4CCC[C@@H](NCC5CCC5)C4)cc3=O)s2)c1 (some centres not stated) | 1.45 | 506 | 3 | – | 480
COc1cncc(-c2cn(Cc3ccc(N4CCCC(NCC5CCC5)C4=O)nn3)nn2)c1 (configuration not stated) | 1.15 | > 30000 | > 30000 | – | –
COc1cncc(-c2ncn(C(C)n3ccc(N4CCC[C@@H](NCC5CCC5)C4)cc3=O)n2)c1 (some centres not stated) | 1.37 | 1610 | 5 | – | –
COc1cnnc(-c2cn(C(C)n3ccc(N4CCC[C@@H](NCC5CCC5)C4)cc3=O)nn2)c1 (some centres not stated) | 0.62 | 5420 | 5 | – | –
COc1cc(-c2cn(Cc3ccc(N4CCC(NCC5CCC5)C4)nn3)nn2)c2cn[nH]c2c1 (configuration not stated) | 1.95 | 15300 | 235 | – | –
COc1cc(-c2cn(Cc3ccc(N4CCC[C@@H](NCC5CC5)C4)nn3)nn2)c2cn[nH]c2c1 | 1.63 | 1050 | 2 | – | –
COc1cc(-c2cn(Cc3ccc(N4CCC[C@@H](NC(C)C5CCC5)C4)nn3)nn2)c2cn[nH]c2c1 (some centres not stated) | 2.14 | 10100 | – | – | –
COc1cncc(-c2cn(Cc3ccc(N4CCC[C@@H](CNC5CCC5)C4)nn3)nn2)c1 | 0.88 | > 30000 | 124 | – | –
COc1cncc(-c2cnn(C(C)n3ccc(N4CCC[C@@H](NCC5CCC5)C4)cc3=O)n2)c1 (some centres not stated) | 1.84 | > 30000 | > 30000 | – | –
COc1cc(-c2cn(Cc3ccc(N4CCC(NCC5CCC5)CC4)nn3)nn2)c2cn[nH]c2c1 | 1.64 | > 30000 | 563 | – | –
COc1cncc(-c2cn(Cc3ccc(C4CCCC(NCC5CCC5)C4)nn3)nn2)c1 (configuration not stated) | 1.55 | > 30000 | 215 | – | –
COc1cc(-c2cn(Cc3ccc(N4CCC[C@@H](N)C4)nn3)nn2)c2cn[nH]c2c1 | 1.01 | > 30000 | 243 | – | –
COc1cc(-c2cn(Cc3ccc(N4CCC[C@@H](NCC(C)C)C4)nn3)nn2)c2cn[nH]c2c1 | 1.92 | 1760 | 3 | – | –
COc1cncc(-c2cn(C(C)n3ccc(N4CCC[C@@H](NCC5CCC5)C4)cc3=O)cn2)c1 (some centres not stated) | 1.52 | 453 | – | – | 487
